Consider one molecule from patent EP1036783B1 (MERCK & CO. INC., priority 1999, dated 2000).

The nature of one data set: clinical. The note with it: human, in vivo.
Data set [1] concerns HMG-CoA reductase. The conditions noted are these: human, in vivo.
Data set [2] relates to HMG-CoA reductase. The conditions noted are these: following intraduodenal administration of dihydroxy open acid simvastatin.

As a reminder, the Tmax is the time at which the peak concentration occurs. For orientation: half-life means the time in which the quantity being followed falls by half. Consider `CCC(C)(C)C(=O)O[C@H]1C[C@@H](C)C=C2C=C[C@H](C)[C@H](CC[C@@H](O)C[C@@H](O)CC(=O)O)[C@H]21` [SVA, dihydroxy open acid simvastatin], for which the “effect of itraconazole measured as the unchanged drug” value in “clinical” amounted to 1.5 fold. The Tmax in “clinical” (SVA in plasma) was found to be 4.1 h; in the data set “clinical” (Simyastatin Acid in plasma), 4.1 ± 2.1 h. The half-life was 402 min in “clinical” (t1/2, SV in plasma); 138 min in the data set “clinical” (t1/2, SVA in plasma); 138 ± 30 min in the data set “clinical” (t1/2, Simyastatin Acid in plasma). Further, the “Cmax, Active Inhibitors” value with HMG-CoA reductase [1] was 5.7 = 3.0 ng eq/mL. Moreover, the “Tmax, Active HMG-CoA reductase inhibitors” value in the data set on HMG-CoA reductase [1] was 3.6 (2.5) hr. For the same molecule, the “change by itraconazole pre-treatment in AUC and Cmax of HMG-CoA reductase inhibitory activity (total or active)” value with HMG-CoA reductase [1] is given as 1.3-1.5 fold. In addition, in the data set with HMG-CoA reductase [2], the “lactonization of dihydroxy open acid simvastatin or its active metabolites” value is “occurred minimally”.
